Data taken from PubChem BioAssay AID463074 (Broad Institute, 2010).
The source made the active and inactive calls.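 Rule for the calls: active = AC50 no more than tenfold above the top dose tested, or full inhibition at every dose with a flat fit (cut at about 19 µM in these data); inconclusive = flat curve fit with inhibition between 30% and 70%, or poor fit; inactive = AC50 more than tenfold above the top dose tested.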

Tested on: HMLE_sh_eGFP viability, CellTiter-Glo luminescence, 72 h
Test: cytotoxicity in HMLE control line with eGFP shRNA, dose response, counter-screen for HMLE_sh_ECad selective toxicity project, cell-based, HMLE_sh_eGFP, luminescence (AID 463074);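 note: counterscreen control line to flag general toxicity for the HMLE_sh_ECad screen; potency for loss of viability as luminescence drops below DMSO wells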

Row | Structure (SMILES) | AC50
1 | Cc1ccc(Oc2c(C(N)=O)cc([N+](=O)[O-])cc2[N+](=O)[O-])cc1 | 3.84 µM
2 | O=C(Nc1ccon1)c1nc[nH]c1C(=O)NCc1ccccc1 | 1.77 µM
3 | Cc1cc(C)nc(NC(=O)/C=C/c2cccs2)c1 | > 19.5 µM (inactive)
4 | CCOC(=O)Nc1ccc2nc(Sc3ccc(Cl)cc3)sc2c1 | 2.97 µM
5 | O=C(Nc1ccc2c(c1)OCO2)c1cc(-c2cccc(O)c2)on1 | 1.65 µM
6 | C[C@@H]1O[C@@H](O[C@@H]2C=C3CC[C@@H]4C(CC[C@]5(C)[C@@H](c6ccc(=O)oc6)CC[C@]45O)[C@@]3(C)CC2)[C@H](O)[C@H](O)[C@H]1O (stereo not given in full) | < 0.16 µM
7 | COc1ccc(C(=O)NNc2ccccc2)cc1OC | 1.83 µM
8 | C[C@@H]1CN([C@H](C)CO)C(=O)Cc2cc(NS(=O)(=O)c3ccc(Cl)cc3)ccc2O[C@H]1CN(C)Cc1ccc(C(F)(F)F)cc1 | 3.18 µM
9 | OC(CNCCc1ccc(C(F)(F)F)cc1)COc1cccc2ccccc12 (stereo not given) | 3.54 µM
10 | O/N=C/c1ccnc(SCc2ccc(Cl)cc2)n1 | 10.9 µM
11 | CC(C)=CCCC1(C)C=Cc2c(c(C)cc3c2[nH]c2cc(O)ccc23)O1 (stereo not given) | 6.29 µM
12 | COc1ccc(C(=O)/C=C/c2ccc(OC)c(Cn3nnc4ccccc43)c2)cc1 | 6.82 µM
13 | Cc1cc(OCc2cc(C(=O)N3CCC(Oc4cccnc4)CC3)no2)cc(C)c1Cl | 8.31 µM
14 | Cc1ccc(Nc2cc(C)nc(NCc3ccccc3)n2)cc1 | 4.86 µM
15 | O=C(NNc1ccccc1)C(=O)N1CCCCC1 | 3.16 µM
16 | CCN1CCN(c2cc(C)c3cc(NC(=S)N4CCN(c5ccc(F)cc5)CC4)ccc3n2)CC1 | 4.67 µM
17 | C=CCNCCCOc1ccc(Cl)cc1C(C)(C)C | 14.9 µM
18 | O=[N+]([O-])c1nn(-c2ccc3c(c2)OCCO3)n(O)c1=NCCC1=CCCCC1 | 17.9 µM
19 | COc1ccc(C(=O)C2CCCN(C3CSCCSC3)C2)c(OC)c1 (stereo not given) | 4.74 µM
20 | Cc1cn(-c2cc(C(=O)Nc3ccc(C)c(NC(=O)C(=O)c4c[nH]c5ccccc45)c3)cc(C(F)(F)F)c2)cn1 | 3.5 µM
21 | C=Cn1ccnc1P(=S)(c1ccc2c(c1)c1ccccc1n2CC)c1nccn1C=C | 2.18 µM
22 | O=[N+]([O-])/C=C/c1cn(Cc2ccc(Cl)cc2)c2ccccc12 | 2.2 µM
23 | CCn1c2ccccc2c2cc(NS(=O)(=O)c3ccc(C)cc3)ccc21 | 4.53 µM
24 | Cc1ccc2[nH]c3nc(N/N=C/c4cccc(O)c4)nnc3c2c1 | 0.248 µM
25 | CC(O)CC(C(=O)NNc1ccccc1)C(=O)NNc1ccccc1 (stereo not given) | 1.87 µM
26 | Cc1cc(NC(=O)c2cc(-c3ccncc3)nc3ccccc23)ccc1Br | 6.77 µM
27 | Cc1ccc(SC[C@H](C)CN2CC[C@H](C(C)(C)C)CCC2=O)cc1 | 6.63 µM

Row | Structure (SMILES) | AC50
28 | CCOC(=O)C(=Cc1ccc(OCc2ccc([N+](=O)[O-])cc2)c(OC)c1)C(=O)OCC | 3.03 µM
29 | Cc1cccc(NC(=O)c2cc(-c3cc(C)cc(C)c3O)n[nH]2)c1 | 4.2 µM
30 | C=C(CC[C@@H](O)C(C)(C)O)[C@H]1CC[C@]2(C)[C@@H]1CCC1[C@@]3(C)CCC(=O)C(C)(C)C3CC[C@]12C (stereo not given in full) | 2.52 µM
31 | CCc1ccc2nc(SCC(=O)Nc3ccccc3N3CCOCC3)c(C#N)cc2c1 | 2.73 µM
32 | Cc1ccc(NC(=O)/C=C/c2ccc([N+](=O)[O-])s2)c(C)c1 | 2.3 µM
33 | CC(C)CCNc1nc(-c2ccco2)c2c(c1C#N)CCCC2 | 11.3 µM
34 | Cc1cccc(CN2C(=O)/C(=C\c3ccc(C(=O)NCCCN4CCN(C)CC4)cc3)Oc3ccccc32)c1 | 3.62 µM
35 | O=C(Nc1ccc(Cl)cc1)c1cc2c(cc1O)[nH]c1ccccc12 | 0.488 µM
36 | O=c1c2cc(NC(=S)NCCCN3CCC(Cc4ccccc4)CC3)ccc2nc2n1CCCCC2 | 6.21 µM
37 | OC(COc1ccc2ccccc2c1Br)Cn1cnc(-c2ccccc2)c1 (stereo not given) | 6.05 µM
38 | CC1=C(C(=O)OC2CCCCC2)C(c2ccc(C)o2)C2=C(CC(C)(C)CC2=O)N1 (stereo not given) | 12.9 µM
39 | O=C(Nc1ccc(C(F)(F)F)cc1)c1cccn(Cc2ccc3c(c2)OC(F)(F)O3)c1=O | 4.91 µM
40 | O=C(NCc1ccc(Cl)cc1)c1cccc(NC(=O)c2ccccc2)c1 | 6.79 µM
41 | Cc1ccccc1/C=N/Nc1ccnc2cc(Cl)ccc12 | 4.44 µM
42 | COc1ccc(-c2cc([C@H]3[C@@H]4C=CCC[C@@]4(C)C(=O)N3Cc3ccccc3)ccc2F)cc1OC | 5.67 µM
43 | Cc1cc(O)c(C(C)C)cc1C1(c2cc(C(C)C)c(O)cc2C)OC(=O)c2ccccc21 | 3.23 µM
44 | O=S(=O)(NC1CC(NS(=O)(=O)OCC(Cl)(Cl)Cl)C2CCCCC12)OCC(Cl)(Cl)Cl (stereo not given) | 1.47 µM
45 | O=c1c(Cl)c(NCc2ccc(F)cc2)cnn1C12CC3CC(CC(C3)C1)C2 | 2.15 µM
46 | O=C(Nc1ccncc1)c1cc(-c2cccc(Br)c2)nc2ccccc12 | 5.99 µM
47 | COc1cccc(S(=O)(=O)NCc2ccc(C(=O)Nc3cccc(Cl)c3)cc2)c1 | 4.74 µM
48 | CC1CCN(CC(CS(=O)(=O)c2ccc([N+](=O)[O-])cc2)N2CCC(C)CC2)CC1 (stereo not given) | 6.58 µM
49 | O=C(/C=C/c1ccco1)NCC1OCCc2ccccc21 (stereo not given) | > 19.5 µM (inactive)
50 | COc1ccc(-c2cc(C3CCN(c4ccc(C(C)=O)cc4[N+](=O)[O-])CC3)[nH]n2)cc1 | 8.83 µM
51 | Cc1nn(-c2ccccc2)c(N2CCCCC2)c1/C=N/O | 1.69 µM
52 | CCN(CC)c1ccc(/C=N/NC(=O)CCC(=O)NCc2ccccc2)c(O)c1 | 8.23 µM
53 | CC(=O)Nc1ccc(-c2csc(NC(=O)CCCc3cccs3)n2)cc1 | 0.986 µM
54 | CN(C)c1ccc(/C=C2\CCC/C(=C\c3ccccc3)C2=O)cc1 | 5.47 µM

Row | Structure (SMILES) | AC50
55 | Cc1ccc(-c2csc3ncnc(NS(=O)(=O)c4ccc(Cl)cc4)c23)cc1 | 11.6 µM
56 | Cc1ccc(C)c(N2CCN(C(=S)Nc3ccc4nc(N5CCN(C)CC5)cc(C)c4c3)CC2)c1 | 7.7 µM
57 | O=C(N/N=C/c1ccc(Cl)c([N+](=O)[O-])c1)c1cc(-c2ccccc2)nc2ccccc12 | 4.52 µM
58 | Cc1cc(SCC(=O)c2cccs2)n2nc(C)c(-c3ccc(Cl)cc3)c2n1 | 15.5 µM
59 | COc1ccccc1-c1cc(C(F)(F)F)nc(S(C)(=O)=O)n1 | 6.13 µM
60 | COc1cc(/C=N/NC(=O)c2ccc(CN(C)S(=O)(=O)c3ccc(C)cc3)cc2)ccc1O | 5.13 µM
61 | COc1ccc(-c2noc3c2-c2nc(-c4ccccc4C)sc2CC3)cc1 | 1.03 µM
62 | COc1ccc(OC)c(-c2nnc3n2N=C(c2ccc(OC(F)F)c(OCC4CC4)c2)CS3)c1 | 4.26 µM
63 | CCn1c(=O)c([N+](=O)[O-])c(Cl)c2ccccc21 | 3.56 µM
64 | O=C(Nc1cccc(-c2csc(Nc3cccc(C(F)(F)F)c3)n2)c1)c1ccccc1 | 3.42 µM
65 | Clc1ccc(CSc2nnnn2-c2ccc3c(c2)OCO3)c(Cl)c1 | 10.6 µM
66 | Cc1cc(Nc2cccc(F)c2)nc(-c2ccccc2O)n1 | 6.41 µM
67 | CCCC(=O)NC(c1ccco1)c1cc([N+](=O)[O-])c2cccnc2c1O (stereo not given) | 7.35 µM
68 | COc1cc(NC(=O)c2cc3ccccc3cc2O)c(OC)cc1Cl | 1.17 µM
69 | CCCc1nc2ccccc2c(C(=O)OCC(=O)N2CCc3ccccc32)c1CC | 3.97 µM
70 | CCNc1nc(Oc2c(Cl)cccc2Cl)cc(C(F)(F)F)n1 | 13.1 µM
71 | C=CCC[C@H](Cc1ccc(F)cc1)C(=O)OC[C@@H](Cc1c[nH]c2ccccc12)NC(=O)[C@@H](CC=C)CC(=O)N(CCO)Cc1ccccc1 | 4.34 µM
72 | CCC(=O)Nc1ccc(C(=O)Cn2ncc(Cl)c(Cl)c2=O)cc1 | 7.77 µM
73 | Cc1ccc(CCC(=O)Nc2ncc(Cc3cc(Cl)ccc3Cl)s2)o1 | 13.6 µM
74 | CC(C)c1ccc(/C=N/NC(=O)c2cccc(Cl)c2)cc1 | 8.64 µM
75 | CCOC(=O)C1=C(N)Oc2cc(O)ccc2C1c1cccc(Cl)c1 (stereo not given) | 4.06 µM
76 | COc1ccccc1C(CCNCc1ccc(N(C)C)cc1)c1ccc(OC(C)C)cc1 (stereo not given) | 3.58 µM
77 | COc1ccc(C(=O)NCC2(c3ccccc3)CCCC2)c(OC)c1 | 9.54 µM
78 | CC(=O)Nc1ccc(SCC(=O)c2cc(C)n(-c3ccccc3)c2C)cc1 | 13.3 µM
79 | COc1ccc(-c2sc3ccc(OC)cc3c2C#CCCO)cc1 | 7.27 µM
80 | CC(C)(C)c1ccc(/C=C(\c2nc3ccccc3[nH]2)S(=O)(=O)c2ccccc2)cc1 | 1.42 µM
81 | CC(=O)c1ccc(NC(=O)c2ccc([N+](=O)[O-])o2)cc1 | 7.8 µM

Row | Structure (SMILES) | AC50
82 | CCCCN=C(NNc1ccc(Br)cc1)C(=O)OCC | 3.99 µM
83 | COC(=O)c1c(NC(=O)c2ccccc2)sc2c1CC(C)(C)OC2 | > 19.5 µM (inactive)
84 | CC(C)(C)c1cc(C(=O)N/N=C/c2ccccc2O)n(-c2ccccc2)n1 | 4.41 µM
85 | FC(F)(F)c1cc(CCN2CCNC[C@@H]2Cc2ccccc2)cc(C(F)(F)F)c1 | 13.7 µM
86 | OC(CN1CCN(c2ccccn2)CC1)Cn1c2ccc(Cl)cc2c2cc(Cl)ccc21 (stereo not given) | 6.78 µM
87 | CC(=O)Oc1ccc(C#C/C=C2\c3ccccc3C(=O)N2c2ccccc2)cc1 | 4.92 µM
88 | COc1cc(C[C@H](C)[C@H](C)Cc2ccc3c(c2)OCO3)ccc1O | 6.66 µM
89 | O=C(N/N=C/c1c[nH]c2ccccc12)C1CC1(c1ccccc1)c1ccccc1 (stereo not given) | 7.04 µM
90 | CCCC(=O)Nc1nc2ccc(NC(=O)c3c(F)c(F)c(OC)c(F)c3F)cc2s1 | 1.56 µM
91 | COc1ccc(CC2S/C(=N/N=C/c3ccccc3O)NC2=O)cc1 (stereo not given) | 19.2 µM
92 | COc1ccc(NS(=O)(=O)c2cc(NC(=O)c3ccc(=O)[nH]c3)ccc2N2CCCC2)cc1 | 1.1 µM
93 | COc1cc(/C=C(\C#N)C(=O)NC2CCCCC2C)ccc1OS(=O)(=O)c1ccc(C)cc1 (stereo not given) | 6.69 µM
94 | Cc1c(CCOC(=O)C2C3CC4CC(C3)CC2C4)sc[n+]1CC(=O)c1ccc(Br)cc1 (stereo not given) | 2.44 µM
95 | CN(C)CCNc1nc2sc3c(c2c(=O)n1CCc1ccccc1)CCCCC3 | 7.1 µM
96 | COc1ccc2c(c1)[nH]c1c(=O)n(/N=C/C3C(C)C=C(C)CC3C)c(=O)[nH]c12 (stereo not given) | > 19.5 µM (inactive)
97 | O=C(CCc1ccccc1)Nc1sc2c(c1C(=O)O)CCCC2 | > 19.5 µM (inactive)
98 | O=C(O)c1ccccc1C(=O)NNc1ccc(Cl)cc1 | 3.95 µM
99 | O=C(C1CCCN(S(=O)(=O)c2ccc([N+](=O)[O-])cc2)C1)N1CCCCC1 (stereo not given) | > 19.5 µM (inactive)
100 | CCN(CC)CCCNC(=O)c1cc(-c2ccccc2)c(N2CCCCC2)s1 | 3.29 µM
101 | Clc1ccc(-c2nnnn2-c2ccc(Cl)c(Cl)c2)cc1Cl | 15.2 µM
102 | FC(F)(F)c1nnc(-c2ccccc2)nc1Sc1ccc(Cl)cc1 | 6.48 µM
103 | O=C(COC(=O)c1c2c(nc3ccccc13)/C(=C\c1cccs1)CCC2)Nc1ccccc1 | 2.77 µM
104 | Cc1cc(N2CCN(C)CC2)nc2ccc(NC(=S)NCCC(C)C)cc12 | 7.91 µM
105 | CCCCC(=O)Nc1nc(C)c(-c2csc(Nc3cc(OC)ccc3OC)n2)s1 | 2.27 µM
